{"source": "paper PMC11696576", "about": "“Next generation thiazolyl ketone inhibitors of cytosolic phospholipase A2 α for targeted cancer therapy” (Nature Communications, 2025)", "key": {"[1]": {"test_system": "CCRF-CEM cells", "assay": "RNA-Seq differential gene expression", "type": "cell-based, human", "settings": "for log2(fold change): Upregulated", "description": "Given our findings that the sensitivity to AVX420 was dependent on increased intracellular ROS, we hypothesized that activation of the integrated stress response (ISR) by oxidative damage may be the cause of cell death. The ISR converges on deactivation of the eukaryotic translation initiation factor 2 alpha (eIF2α) to globally suppress translation, with the exception of selected genes (e.g., activating transcription factor (ATF) 4) which activate robust transcriptional changes to restore homeostasis and promote survival or, when oxidative damage is sustained, to initiate programmed cell death. To investigate this, we used a combination of RNA-SEQ and Ribosomal RNA-SEQ (Ribo-SEQ) to measure the global transcriptional and translational response to AVX420 in CCRF-CEM cells. […] Translational effects were determined by calculating the proportion of total transcript associated with the ribosome (ribosomal occupancy (RO)). […] As a positive control we treated cells for 1 hour with the dual mTOR inhibitor Torin-1, which reduced the RO of 20 mRNAs.\nCCRF-CEM cells seeded at 200,000 viable cells/mL were treated with AVX420 (0.5 μM) or DMSO (0.1%) and harvested after 1 hour, 6 h, or 16 h. Torin-1 (100 nM) treatment was harvested after 1 h. The flasks were placed on ice and the cell suspensions were transferred to 50 mL conical tubes for centrifugation (405 × g, 4 °C, 5 min). […] The cells were collected and centrifuged at 405 x g for 5 min at 4 °C. The supernatant was discarded, and the cells were suspended in 1 mL of DPBS before centrifugation at 405 x g for 5 min at 4 °C. Resulting cell pellets were snap-frozen in liquid nitrogen and stored at −80 °C. RNA-Seq and ribosome-associated RNA(Ribo)-Seq was performed by Eclipsebio (eclipsebio.com). Protocols are available in the Supplemental Methods section. […]\ncorrection using the Benjamini-Hochberg correction to control the rate of false-posi-tives. Gene sets with false discovery rate <20% were considered significant. […]\nRNA-Seq and ribosome-associated RNA(Ribo)-Seq\nRNA-Seq and ribosome-associated RNA(Ribo)-Seq was performed by Eclipsebio (eclipsebio.com). The cytosolic fraction of crosslinked cell pellets was isolated and RNA quality and quantity was assessed before 250 ng of the isolated RNA was used to build 3’ RNA-Seq libraries. 10 µg RNA was used for immunoprecipitation (IP) for Ribo-SEQ analysis. Non-crosslinked RNA was removed from the IP through multiple wash steps and the remaining RNA was released via proteinase digestion. RNA from both sources was fragmented and libraries were generated from the poly(A) tails. Li-braries were sequenced on a NextSeq 2 000. After sequencing, samples were pro-cessed with Eclipsebio’s proprietary analysis pipeline (v1). Unique molecular identifi-ers (UMIs) were pruned from read sequences using umitools (v1.1.1). Next 3' adapt-ers were trimmed from reads using cutadapt (v3.2). Reads were then mapped to a cus-tom, curated database of repetitive elements and rRNA sequences. All non -repeat mapped reads were mapped to the genome hg38 using STAR (v2.7.7a) and PCR du-plicates were removed using umi_tools (v1.1.1). Gene coverage was cal culated using Eclipsebio’s proprietary feature counting algorithm and ribosome occupancy was cal-culated by dividing coverage in the ribosome -associated (IP) library by the RNA -Seq library. Differentially expressed and occupied genes were identified using D ESeq2.\nSignificant differential expression was defined using a cutoff on p.value < 0.01 (after multiple testing adjustment, \"padj\" metric) and requiring the fold change in gene cov-erage to be greater than 1 or less than -1 (log2 scale). Significance of the ribosomal occupancy (RO) difference was determined by extending DESeq2 models to include RO fold change as an interaction between the experimental condition and the library type. Genes with a RO log2 (fold change) > 1 or < -1 and an adjusted p-value < 0.01 were considered significant. […]"}, "[2]": {"test_system": "Jurkat E6.1 cells", "assay": "cell death, PI exclusion and flow cytometry, time course (Figure S9b)", "type": "cell-based, human", "design": "unit not given here", "settings": "replicates, listed as AVX420"}}, "note": "“And” between values parts separate entries of the source, which are not always exact repeats. Equal entries are not always repeated."}
{"smiles": "CCCCCCCOc1ccc(OCC(=O)c2nc(C(=O)OC)cs2)cc1", "note": "[GK420]", "values": [{"measurement": "log2(fold change)", "setting": "[1]; ADM2, 6 h", "result": 1.49}, {"measurement": "log2(fold change)", "setting": "[1]; ATF3, 6 h", "result": 1.05}, {"measurement": "changes in gene expression", "setting": "[1]; CCRF-CEM, 0.5 μM, 1 hour", "result": "No significant changes"}, {"measurement": "log2FC ADM2", "setting": "[1]; CCRF-CEM, 0.5 μM, 6 h", "result": 1.49}, {"measurement": "log2FC ATF3", "setting": "[1]; CCRF-CEM, 0.5 μM, 6 h", "result": 1.05}, {"measurement": "log2FC CHAC1", "setting": "[1]; CCRF-CEM, 0.5 μM, 6 h", "result": 2.25}, {"measurement": "log2FC DDIT3", "setting": "[1]; CCRF-CEM, 0.5 μM, 6 h", "result": 1.15}, {"measurement": "log2FC ENSG00000260498", "setting": "[1]; CCRF-CEM, 0.5 μM, 6 h", "result": 1.44}, {"measurement": "log2FC GPT2", "setting": "[1]; CCRF-CEM, 0.5 μM, 6 h", "result": 1.24}, {"measurement": "log2FC L3MBTL2-AS1", "setting": "[1]; CCRF-CEM, 0.5 μM, 6 h", "result": 2.13}, {"measurement": "log2FC LINC-PINT", "setting": "[1]; CCRF-CEM, 0.5 μM, 6 h", "result": 1.34}, {"measurement": "log2FC LY9", "setting": "[1]; CCRF-CEM, 0.5 μM, 6 h", "result": 1.05}, {"measurement": "log2FC SESN2", "setting": "[1]; CCRF-CEM, 0.5 μM, 6 h", "result": 1.59}, {"measurement": "log2FC SLC6A9", "setting": "[1]; CCRF-CEM, 0.5 μM, 6 h", "result": 1.25}, {"measurement": "log2FC SLC7A11", "setting": "[1]; CCRF-CEM, 0.5 μM, 6 h", "result": 1.57}, {"measurement": "log2FC ULBP1", "setting": "[1]; CCRF-CEM, 0.5 μM, 6 h", "result": 1.2}, {"measurement": "log2FC VLDLR", "setting": "[1]; CCRF-CEM, 0.5 μM, 6 h", "result": 1.27}, {"measurement": "log2FC VLDLR-AS1", "setting": "[1]; CCRF-CEM, 0.5 μM, 6 h", "result": 1.02}, {"measurement": "log2FC YAP1", "setting": "[1]; CCRF-CEM, 0.5 μM, 6 h", "result": 1.04}, {"measurement": "number of genes upregulated", "setting": "[1]; CCRF-CEM, 0.5 μM, 6 h", "result": 16}, {"measurement": "number of differentially expressed genes (DEGs)", "setting": "[1]; CCRF-CEM, 0.5 μM, 16 h", "result": 82}, {"measurement": "log2FoldChange ADM2", "setting": "[1]; CCRF-CEM, 0.5 μM, 16 hours", "result": 2.31}, {"measurement": "log2FoldChange AQP3", "setting": "[1]; CCRF-CEM, 0.5 μM, 16 hours", "result": -1.1}, {"measurement": "log2FoldChange B4GALNT1", "setting": "[1]; CCRF-CEM, 0.5 μM, 16 hours", "result": 2.37}, {"measurement": "log2FoldChange CAMKK1", "setting": "[1]; CCRF-CEM, 0.5 μM, 16 hours", "result": -1.18}, {"measurement": "log2FoldChange CAMKV", "setting": "[1]; CCRF-CEM, 0.5 μM, 16 hours", "result": -1.07}, {"measurement": "log2FoldChange CHAC1", "setting": "[1]; CCRF-CEM, 0.5 μM, 16 hours", "result": 3.51}, {"measurement": "log2FoldChange DUSP2", "setting": "[1]; CCRF-CEM, 0.5 μM, 16 hours", "result": -1.04}, {"measurement": "log2FoldChange ENSG00000260498", "setting": "[1]; CCRF-CEM, 0.5 μM, 16 hours", "result": 2.28}, {"measurement": "log2FoldChange GPT2", "setting": "[1]; CCRF-CEM, 0.5 μM, 16 hours", "result": 3.48}, {"measurement": "log2FoldChange HRG", "setting": "[1]; CCRF-CEM, 0.5 μM, 16 hours", "result": 2.92}, {"measurement": "log2FoldChange IFRD1", "setting": "[1]; CCRF-CEM, 0.5 μM, 16 hours", "result": 2.08}, {"measurement": "log2FoldChange L3MBTL2-AS1", "setting": "[1]; CCRF-CEM, 0.5 μM, 16 hours", "result": 3.01}, {"measurement": "log2FoldChange LINC02970", "setting": "[1]; CCRF-CEM, 0.5 μM, 16 hours", "result": 3.49}, {"measurement": "log2FoldChange LRRTM1", "setting": "[1]; CCRF-CEM, 0.5 μM, 16 hours", "result": -1.11}, {"measurement": "log2FoldChange MIR22HG", "setting": "[1]; CCRF-CEM, 0.5 μM, 16 hours", "result": 2.58}, {"measurement": "log2FoldChange MYT1", "setting": "[1]; CCRF-CEM, 0.5 μM, 16 hours", "result": -1.13}, {"measurement": "log2FoldChange NDUFA4L2", "setting": "[1]; CCRF-CEM, 0.5 μM, 16 hours", "result": 2.19}, {"measurement": "log2FoldChange NMRAL2P", "setting": "[1]; CCRF-CEM, 0.5 μM, 16 hours", "result": 2.89}, {"measurement": "log2FoldChange NOL3", "setting": "[1]; CCRF-CEM, 0.5 μM, 16 hours", "result": 2.29}, {"measurement": "log2FoldChange OSGIN1", "setting": "[1]; CCRF-CEM, 0.5 μM, 16 hours", "result": 3.08}, {"measurement": "log2FoldChange PNMA1", "setting": "[1]; CCRF-CEM, 0.5 μM, 16 hours", "result": -1.02}, {"measurement": "log2FoldChange RAG1", "setting": "[1]; CCRF-CEM, 0.5 μM, 16 hours", "result": -1.12}, {"measurement": "log2FoldChange RFPL1S", "setting": "[1]; CCRF-CEM, 0.5 μM, 16 hours", "result": 2.61}, {"measurement": "log2FoldChange RPL23AP42", "setting": "[1]; CCRF-CEM, 0.5 μM, 16 hours", "result": -2.03}, {"measurement": "log2FoldChange SESN2", "setting": "[1]; CCRF-CEM, 0.5 μM, 16 hours", "result": 2.53}, {"measurement": "log2FoldChange SLC6A9", "setting": "[1]; CCRF-CEM, 0.5 μM, 16 hours", "result": 2.93}, {"measurement": "log2FoldChange SLC7A11", "setting": "[1]; CCRF-CEM, 0.5 μM, 16 hours", "result": 3.42}, {"measurement": "log2FoldChange THOC3", "setting": "[1]; CCRF-CEM, 0.5 μM, 16 hours", "result": -1.74}, {"measurement": "log2FoldChange TM6SF1", "setting": "[1]; CCRF-CEM, 0.5 μM, 16 hours", "result": 2.49}, {"measurement": "log2FoldChange VLDLR-AS1", "setting": "[1]; CCRF-CEM, 0.5 μM, 16 hours", "result": 2.44}, {"measurement": "log2(fold change)", "setting": "[1]; CHAC1, 6 h", "result": 2.25}, {"measurement": "log2(fold change)", "setting": "[1]; DDIT3, 6 h", "result": 1.15}, {"measurement": "log2(fold change)", "setting": "[1]; ENSG00000260498, 6 h", "result": 1.44}, {"measurement": "log2(fold change)", "setting": "[1]; GPT2, 6 h", "result": 1.24}, {"measurement": "log2(fold change)", "setting": "[1]; L3MBTL2-AS1, 6 h", "result": 2.13}, {"measurement": "log2(fold change)", "setting": "[1]; LINC-PINT, 6 h", "result": 1.34}, {"measurement": "log2(fold change)", "setting": "[1]; LY9, 6 h", "result": 1.05}, {"measurement": "log2(fold change)", "setting": "[1]; SESN2, 6 h", "result": 1.59}, {"measurement": "log2(fold change)", "setting": "[1]; SLC6A9, 6 h", "result": 1.25}, {"measurement": "log2(fold change)", "setting": "[1]; SLC7A11, 6 h", "result": 1.57}, {"measurement": "log2(fold change)", "setting": "[1]; ULBP1, 6 h", "result": 1.2}, {"measurement": "log2(fold change)", "setting": "[1]; VLDLR, 6 h", "result": 1.27}, {"measurement": "log2(fold change)", "setting": "[1]; VLDLR-AS1, 6 h", "result": 1.02}, {"measurement": "log2(fold change)", "setting": "[1]; YAP1, 6 h", "result": 1.04}, {"measurement": "PI Negative (Figure S9b)", "setting": "[2]; 1h", "result": "92 and 90"}, {"measurement": "PI Positive (Figure S9b)", "setting": "[2]; 1h", "result": "8 and 10"}, {"measurement": "PI Negative (Figure S9b)", "setting": "[2]; 2h", "result": "88 and 92"}, {"measurement": "PI Positive (Figure S9b)", "setting": "[2]; 2h", "result": "12 and 8"}, {"measurement": "PI Negative (Figure S9b)", "setting": "[2]; 4h", "result": "94 and 93 and 92"}, {"measurement": "PI Positive (Figure S9b)", "setting": "[2]; 4h", "result": "6 and 7 and 8"}, {"measurement": "PI Negative (Figure S9b)", "setting": "[2]; 8h", "result": "91 (2×) and 87 and 88"}, {"measurement": "PI Positive (Figure S9b)", "setting": "[2]; 8h", "result": "9 (2×) and 13 and 12"}, {"measurement": "PI Negative (Figure S9b)", "setting": "[2]; 12h", "result": "80 and 83 and 82"}, {"measurement": "PI Positive (Figure S9b)", "setting": "[2]; 12h", "result": "20 and 17 and 18"}, {"measurement": "PI Negative (Figure S9b)", "setting": "[2]; 16h", "result": "70 and 75 and 71"}, {"measurement": "PI Positive (Figure S9b)", "setting": "[2]; 16h", "result": "30 and 25 and 29"}, {"measurement": "PI Negative (Figure S9b)", "setting": "[2]; 24h", "result": "65 and 67 and 73"}, {"measurement": "PI Positive (Figure S9b)", "setting": "[2]; 24h", "result": "35 and 33 and 27"}]}
